The values below are quoted from earlier work in patent US11331266B1, “Antioxidant free, norepinephrine bitartrate injection in amber glass vials” (Medefil, Inc., priority 2020, dated 2022).

For this data set the following is noted: literature, Int. J. Toxicol. 2002; 21 Suppl 2:19-94.

`COc1ccc(O)c(C(C)(C)C)c1` [butylated hydroxyl anisole]: the organ damage entry is “some renal and hepatic damage”.
